This passage reports IC50 results from patent US10287295B2, “TGF-β inhibitors” (Rigel Pharmaceuticals, Inc., priority 2015, dated 2019).

The IC50 is the concentration needed to halve the response being measured.

For assay [1], the system named is GDF8 signaling (GDF pSMAD, MPC11). Description: AlphaScreen SureFire SMAD3 (p-Ser423/425) assay, inhibition of GDF8 signaling. It counts as cell-based. As to conditions: Mus musculus, MPC-11, inhibition of GDF8 signaling, p-SMAD3 readout. (Bead proximity is the source of the signal in Alpha formats.)
The subject of assay [2] is TGF-β signaling (TGF-β pSMAD, MPC-11). Description: AlphaScreen SureFire SMAD3 (p-Ser423/425) assay, inhibition of TGF-β signaling. It counts as cell-based. As to conditions: Mus musculus, MPC-11, inhibition of TGF-β signaling, p-SMAD3 readout.

As to `Cn1cnc2ccc(-c3[nH]cnc3-c3ccc(F)c(F)c3)cc21` [Compound 33, 6-(4-(3,4-Difluorophenyl)-1H-imidazol-5-yl)-1-methyl-1H-benzo[d]imidazole], the IC50 is 60 nM in assay [1] and 70 nM in assay [2].
The matching figures for `Fc1ccc(-c2nc[nH]c2-c2ccc3ncsc3c2)cc1F` [Compound 34, 6-(4-(3,4-Difluorophenyl)-1H-imidazol-5-yl)benzo[d]thiazole]: 70 nM and 140 nM.
The like results for `Fc1ccc(-c2nc[nH]c2-c2ccc3nccn3c2)cc1F` [Compound 35, 6-(4-(3,4-Difluorophenyl)-1H-imidazol-5-yl)imidazo[1,2-a]pyridine] were, in that order, 300 nM and 640 nM.
As for `Fc1ccc(-c2nc[nH]c2-c2ccc3ncccc3c2)cc1F` [Compound 36, 6-(4-(3,4-Difluorophenyl)-1H-imidazol-5-yl)quinoline], the figures for the half-inhibitory concentration (IC50) in assay [1] and in assay [2] were 500 nM and 1480 nM, respectively.
Regarding `Cc1cc(-c2ncn(C)c2-c2ccc3ncccc3c2)ccc1F` [Compound 37, 6-(4-(4-Fluoro-3-methylphenyl)-1-methyl-1H-imidazol-5-yl)quinoline], the results for the IC50 in assay [1] and in assay [2] were 260 nM and 920 nM, respectively.
The like results for `Fc1ccc(-c2nc[nH]c2-c2ccc3ncccc3c2)cc1` [Compound 38, 6-(4-(4-Fluorophenyl)-1H-imidazol-5-yl)quinoline] were, in that order, 930 nM and 2550 nM.
The like results for `Clc1cccc(-c2nc[nH]c2-c2ccc3ncccc3c2)c1` [Compound 39, 6-(4-(3-Chlorophenyl)-1H-imidazol-5-yl)quinoline] were, in that order, 190 nM and 390 nM.
Turning to `Fc1cccc(-c2nc[nH]c2-c2ccc3ncccc3c2)c1` [Compound 40, 6-(4-(3-Fluorophenyl)-1H-imidazol-5-yl)quinoline], the IC50 was found to be 460 nM in assay [1] and 1220 nM in assay [2].
`Cc1cccc(-c2ncn(C)c2-c2ccc3[nH]ncc3c2)c1` [Compound 41, 5-(1-Methyl-4-(m-tolyl)-1H-imidazol-5-yl)-1H-indazole]: the IC50 was determined as 20 nM in assay [1] and 60 nM in assay [2].
Turning to `Cc1cccc(-c2ncn(C)c2-c2ccc3cn[nH]c3c2)c1` [Compound 42, 6-(1-Methyl-4-(m-tolyl)-1H-imidazol-5-yl)-1H-indazole], the IC50 amounted to 30 nM in assay [1] and 150 nM in assay [2].
Consider `Cc1cccc(-c2ncn(C)c2-c2ccc3ncn(C)c3c2)c1` [Compound 43, 1-Methyl-6-(1-methyl-4-(m-tolyl)-1H-imidazol-5-yl)-1H-benzo[d]imidazole], for which the IC50 in assay [1] came out at 190 nM; in assay [2] it was 530 nM.
`Cc1cccc(-c2ncn(C)c2-c2ccc3ncsc3c2)c1` [Compound 44, 6-(1-Methyl-4-(m-tolyl)-1H-imidazol-5-yl)benzo[d]thiazole]: the figures for the half-inhibitory concentration (IC50) in assay [1] and in assay [2] were 180 nM and 720 nM, respectively.
The matching figures for `Cc1cccc(-c2ncn(C)c2-c2ccc3nccn3c2)c1` [Compound 45, 6-(1-Methyl-4-(m-tolyl)-1H-imidazol-5-yl)imidazo[1,2-a]pyridine]: 440 nM and 1780 nM.
The matching figures for `Cc1cccc(-c2ncn(C)c2-c2ccc3ncccc3c2)c1` [Compound 46, 6-(1-Methyl-4-(m-tolyl)-1H-imidazol-5-yl)quinoline]: 260 nM and 1680 nM.
As to `Cc1cccc(-c2ncn(C)c2-c2ccc3nccnc3c2)c1` [Compound 47, 6-(1-Methyl-4-(m-tolyl)-1H-imidazol-5-yl)quinoxaline], the IC50 is 180 nM in assay [1] and 660 nM in assay [2].
As for `Cn1cnc(-c2ccc(F)cc2)c1-c1ccc2[nH]ncc2c1` [Compound 48, −(4-(4-Fluorophenyl)-1-methyl-1H-imidazol-5-yl)-1H-indazole], the IC50 was found to be 60 nM in assay [1] and 250 nM in assay [2].
